Molecular target: T1, hCRTH2 receptor (Homo sapiens, UniProt Q9Y5Y4)
T1 construct: expressed in transfected cells; host or cells: HEK293
T1 sequence (Q9Y5Y4 1-395): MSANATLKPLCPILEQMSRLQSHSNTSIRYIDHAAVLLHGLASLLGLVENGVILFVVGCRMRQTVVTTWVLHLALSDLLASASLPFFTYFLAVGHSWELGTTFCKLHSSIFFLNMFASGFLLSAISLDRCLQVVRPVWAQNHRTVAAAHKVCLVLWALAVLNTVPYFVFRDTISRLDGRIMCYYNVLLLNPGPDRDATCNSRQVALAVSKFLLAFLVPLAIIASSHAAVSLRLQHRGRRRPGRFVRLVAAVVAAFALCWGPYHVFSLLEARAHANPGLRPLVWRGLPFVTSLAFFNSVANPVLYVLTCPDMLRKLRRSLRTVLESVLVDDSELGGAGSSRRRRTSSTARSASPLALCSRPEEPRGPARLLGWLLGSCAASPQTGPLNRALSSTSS
Assay: Radioligand displacement assay (3H-PGD2) on hCRTH2 receptor membranes
Type: binding
Conditions: antagonistic activity
Description: First, recombinant HEK293-hCRTH2 cells were detached from culture plates into 5 ml buffer A/plate (Buffer A: 5 mM Tris, 1 mM MgCl2-6H2O pH=7.4) using a rubber policeman. Cells were then transferred into centrifugation tubes and centrifuged for 5 min at 400 g. The cell pellet was resuspended in the same buffer and tubes were frozen at −80° C. Cells were thawed and membrane fragments were generated by homogenization using a polytron homogenizer (30 seconds). The membrane fragments were then centrifuged at 3000 g for 20 minutes and resuspended in buffer C (Buffer C: 75 mM Tris, 25 mM MgCl2, 250 mM Saccharose pH 7.4). Aliquots of membrane fragments were stored at −20° C.
Binding assay was performed in a final assay volume of 250 μl. First, 25 μl of test compound, previously diluted in Binding-Buffer (Binding-Buffer: 50 mM Tris-Base, 100 mM NaCl, 1 mM EDTA, 0.1% BSA (protease free), 0.01% NaN3, 10 mM MnCl2, pH 7.0) was placed into each well. After addition of 75 μl Binding-Buffer, 50 μl of the radioligand ^3H-PGD2 (at 2.5 nM (220.000 dpm/well) from ANAWA ART0662) was added to each well. Binding assay was started by addition of 100 μl CRTH2 membrane fragments, reaching a final concentration of 20 μg/well. For non-specific binding, PGD2 was added to the reaction mixture to […] final concentration.
This assay mix was incubated for 90 minutes at room temperature and then filtered through a GF/C filter 96-well plate which was pre-soaked for 3 hours in 0.5% polyethyleneimine (PEI). The filter-wells were washed three times with ice cold Binding-Buffer. Then, 40 μl of Microscint-40 (Packard) was added to each well and the retained radioactivity quantified in a Topcount (Packard).

[1] = 3H-PGD2 radioligand displacement, HEK293-hCRTH2 membranes
[2] = 3H-PGD2 displacement on HEK293-hCRTH2 membrane fragments
[3] = radioligand displacement (3H-PGD2), hCRTH2 receptor membranes

Compound	IC50 [1]	IC50 [2]	other results
COc1cccc([C@@H]2C[C@H]2C(=O)N2CCc3ccccc3C2c2cc(Cl)ccc2OCC(=O)O)c1 (mixture of isomers) [Example 425]	0.0306 µM		
O=C(O)COc1ccc(F)cc1C1c2ccccc2CCN1C(=O)CCc1ccc(Cl)cc1 (racemic) [Example 133, (±)-(2-{2-[3-(4-Chloro-phenyl)-propionyl]-1,2,3,4-tetrahydro-isoquinolin-1-yl}-4-fluoro-phenoxy)-acetic acid]		0.126 µM	
COc1cc(OC)c2ccn(CCC(=O)N3CCc4ccccc4C3c3cc(Cl)ccc3OCC(=O)O)c2c1 (racemic) [Example 377]	0.00971 µM		
COc1ccccc1CCCC(=O)N1CCc2ccccc2C1c1cc(F)ccc1OCC(=O)O (racemic) [Example 149, (±)-(4-Fluoro-2-{2-[4-(2-methoxy-phenyl)-butyryl]-1,2,3,4-tetrahydro-isoquinolin-1-yl}-phenoxy)-acetic acid]		0.0427 µM	
Cc1nn(CCC(=O)N2CCc3cc(F)ccc3[C@H]2c2cc(Cl)ccc2OCC(=O)O)c2cc(Cl)ccc12 [Example 394]	0.185 µM		
CN(CC(=O)N1CCc2ccccc2C1c1cc(Cl)ccc1OCC(=O)O)c1ccccc1 (racemic) [Example 439]	0.379 µM		
O=C(O)COc1ccc(Cl)cc1[C@@H]1c2ccc(F)cc2CCN1C(=O)OCc1cncnc1 [Example 334, (S)-1-(2-Carboxymethoxy-5-chloro-phenyl)-6-fluoro-3,4-dihydro-1H-isoquinoline-2-carboxylic acid pyrimidin-5-ylmethyl ester]	0.00495 µM		
COc1ccc(COCC(=O)N2CCc3ccccc3C2c2cc(F)ccc2OCC(=O)O)cc1 (racemic) [Example 196]		0.146 µM	
O=C(O)COc1ccc(F)cc1C1c2ccccc2CCN1C(=O)CCN1CCc2ccccc21 (racemic) [Example 146, (±)-{2-[2-(3-2,3-Dihydro-indol-1-yl-propionyl)-1,2,3,4-tetrahydro-isoquinolin-1-yl]-4-fluoro-phenoxy}-acetic acid]		0.0613 µM	
O=C(O)COc1ccc(Cl)cc1[C@@H]1c2ccc(F)c(F)c2CCN1C(=O)OCc1nc2ccccc2s1 [Example 319, (S)-1-(2-Carboxymethoxy-5-chloro-phenyl)-5,6-difluoro-3,4-dihydro-1H-isoquinoline-2-carboxylic acid benzothiazol-2-ylmethyl ester]	0.00144 µM		
N#Cc1ccc(OCC(=O)O)c(C2c3cccc(F)c3CCN2C(=O)OCc2ccccc2)c1 (racemic) [Example 19, (±)-1-(2-Carboxymethoxy-5-cyano-phenyl)-5-fluoro-3,4-dihydro-1H-isoquinoline-2-carboxylic acid benzyl ester]		0.00938 µM	
CC(C)[C@@H]1C[C@H]1C(=O)N1CCc2ccccc2[C@H]1c1cc(Cl)ccc1OCC(=O)O (single isomer, unassigned) [Example 464]	0.789 µM		
N#CNC(=O)COc1ccc(Cl)cc1[C@@H]1c2ccccc2CCN1C(=O)OCc1ccccc1 [Example 567, (S)-benzyl 1-(5-chloro-2-(2-cyanamido-2-oxoethoxy)phenyl)-3,4-dihydroisoquinoline-2(1H)-carboxylate]			IC50 [3]: 0.37 µM
COc1cc2c(ccn2CCC(=O)N2CCc3ccccc3C2c2cc(Cl)ccc2OCC(=O)O)cc1Cl (racemic) [Example 375]	0.0818 µM		
COc1ccc2ccn(CCC(=O)N3CCc4ccccc4C3c3cc(Cl)ccc3OCC(=O)O)c2c1 (racemic) [Example 390]	0.00752 µM		
O=C(O)COc1ccc(Cl)cc1C1c2ccccc2CCN1C(=O)COc1ccccc1F (racemic) [Example 410]	0.0707 µM		
C[C@H](OC(=O)N1CCc2ccccc2[C@H]1c1cc(Cl)ccc1OCC(=O)O)c1ccccc1 [Example 261]		0.0971 µM	
O=C(O)COc1ccc(Cl)cc1C1c2ccccc2CCN1C(=O)CCN1CCSC1=O (racemic) [Example 453]	0.312 µM		

Compound	IC50 [1]	IC50 [2]	other results
O=C(O)COc1ccc(Cl)cc1C1c2ccccc2CN1C(=O)CCOc1ccc(F)cc1 (racemic) [Example 520]	0.13 µM		
COc1ccccc1OCC(=O)N1CCc2ccccc2C1c1cc(Cl)ccc1OCC(=O)O (racemic) [Example 406]	0.0268 µM		
Cc1cccc(OCCC(=O)N2CCc3ccccc3C2c2cc(Cl)ccc2OCC(=O)O)c1 (racemic) [Example 94, (±)-{4-Chloro-2-[2-(3-m-tolyloxy-propionyl)-1,2,3,4-tetrahydro-isoquinolin-1-yl]-phenoxy}-acetic acid]		0.0162 µM	
COc1cccc(COC(=O)N2CCc3ccccc3C2c2cc(Cl)ccc2OCC(=O)O)c1OC (racemic) [Example 255]		0.0049 µM	
O=C(O)COc1ccc(Cl)cc1[C@@H]1c2ccc(F)cc2CCN1C(=O)CCn1ncc2cc(F)ccc21 [Example 395, (4-Chloro-2-{(S)-6-fluoro-2-[3-(5-fluoro-indazol-1-yl)-propionyl]-1,2,3,4-tetrahydro-isoquinolin-1-yl}-phenoxy)-acetic acid]	0.0284 µM		
Cc1ccccc1[C@H]1C[C@@H]1C(=O)N1CCc2ccccc2[C@H]1c1cc(Cl)ccc1OCC(=O)O [Example 561, {4-Chloro-2-[(S)-2-((1S,2S)-2-o-tolyl-cyclopropanecarbonyl)-1,2,3,4-tetrahydro-isoquinolin-1-yl]-phenoxy}-acetic acid]			IC50 [3]: 0.274 µM
O=C(O)COc1ccc(F)cc1C1c2ccccc2CCN1C(=O)CC1Cc2ccccc2C1 (racemic) [Example 140, (±)-{4-Fluoro-2-[2-(2-indan-2-yl-acetyl)-1,2,3,4-tetrahydro-isoquinolin-1-yl]-phenoxy}-acetic acid]		0.0364 µM	
CC(C)c1ccc(OCC(=O)O)c(C2c3ccccc3CCN2C(=O)OCc2ccccc2)c1 (racemic) [Example 22, (±)-1-(2-Carboxymethoxy-5-isopropyl-phenyl)-3,4-dihydro-1H-isoquinoline-2-carboxylic acid benzyl ester]		0.483 µM	
O=C(O)COc1ccc(Cl)cc1C1c2cccc(F)c2CCN1C(=O)C#Cc1ccccc1 (racemic) [Example 122, (±)-{4-Chloro-2-[5-fluoro-2-(3-phenyl-propynoyl)-1,2,3,4-tetrahydro-isoquinolin-1-yl]-phenoxy}-acetic acid]		0.196 µM	
Cc1cc(COC(=O)N2CCc3ccccc3C2c2cc(Cl)ccc2OCC(=O)O)no1 (racemic) [Example 270]		0.00831 µM	
O=C(O)COc1ccc(F)cc1C1c2ccccc2CCN1C(=O)CCc1nc2ccccc2s1 (racemic) [Example 59, (±)-{2-[2-(3-Benzothiazol-2-yl-propionyl)-1,2,3,4-tetrahydro-isoquinolin-1-yl]-4-fluoro-phenoxy}-acetic acid]		0.794 µM	
O=C(O)COc1ccc(Cl)cc1C1c2ccccc2CCN1C(=O)CCn1ccc2cccnc21 (racemic) [Example 369]	0.195 µM		
O=C(O)COc1ccc(Cl)cc1C1c2ccccc2CN1C(=O)NCc1ccccc1 (racemic) [Example 555]	0.0145 µM		
O=C(O)COc1ccc(Cl)cc1C1c2ccccc2CN1C(=O)CCn1ncc2cccc(Cl)c21 (single isomer, unassigned) [Example 536]	0.11 µM		
C[C@H](Oc1ccc(F)cc1C1c2ccccc2CCN1C(=O)OCc1ccccc1)C(=O)O (stereo partly drawn) [Example 2, 1-[2-((S)-1-Carboxy-ethoxy)-5-fluoro-phenyl]-3,4-dihydro-1H-isoquinoline-2-carboxylic acid benzyl ester]		0.499 µM	
Cc1nn(CCC(=O)N2Cc3ccccc3C2c2cc(Cl)ccc2OCC(=O)O)c2cc(Cl)ccc12 (single isomer, unassigned) [Example 542, (4-Chloro-2-{2-[3-(6-chloro-3-methyl-indazol-1-yl)-propionyl]-2,3-dihydro-1H-isoindol-1-yl}-phenoxy)-acetic acid]	0.881 µM		
N#Cc1ccc(OCC(=O)O)c(C2c3cc(F)c(F)cc3CCN2C(=O)OCc2ccccc2)c1 (racemic) [Example 11, (±)-1-(2-Carboxymethoxy-5-cyano-phenyl)-6,7-difluoro-3,4-dihydro-1H-isoquinoline-2-carboxylic acid benzyl ester]		0.0133 µM	
O=C(O)COc1ccc(F)cc1C1c2ccccc2CCN1C(=O)Cc1ccc2ncccc2c1 (racemic) [Example 49, (±)-{4-Fluoro-2-[2-(2-quinolin-6-yl-acetyl)-1,2,3,4-tetrahydro-isoquinolin-1-yl]-phenoxy}-acetic acid]		0.0357 µM	

— patent US8575158B2, “1-phenyl-substituted heterocyclyl derivatives and their use as prostaglandin D2 receptor modulators” (Actelion Pharmaceuticals Ltd., priority 2010, dated 2013)
